Read-outs that look alike come from different tables or passages of the source.
Legend:
Format in all cases: cell-based
AGTR1 = target: T1, AGTR1 (Homo sapiens, UniProt P30556); test: DiscoveRx β-arrestin2 recruitment assay (enzyme complementation, Pathunter CHO-K1 AGTR1 β-arrestin cell line)
T1 construct: host or cells: Pathunter CHO-K1 AGTR1 β-arrestin cell line (CHO-K1)
T1 sequence (P30556 1-359): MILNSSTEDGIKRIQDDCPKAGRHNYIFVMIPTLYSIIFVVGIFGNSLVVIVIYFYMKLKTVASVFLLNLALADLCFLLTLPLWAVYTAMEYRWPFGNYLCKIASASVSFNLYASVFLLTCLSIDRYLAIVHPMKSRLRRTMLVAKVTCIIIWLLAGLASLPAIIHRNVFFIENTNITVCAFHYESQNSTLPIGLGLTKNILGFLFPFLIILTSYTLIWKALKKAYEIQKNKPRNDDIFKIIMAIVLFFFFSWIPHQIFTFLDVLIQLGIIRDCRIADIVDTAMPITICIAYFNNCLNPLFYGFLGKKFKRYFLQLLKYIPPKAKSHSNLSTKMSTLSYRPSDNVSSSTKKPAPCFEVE
In short: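 CHO-K1 cells expressing AGTR1 with β-arrestin2 enzyme-complementation reporter, plated 14-16 h ahead in 1% serum medium, then exposed to compounds for 90 min at 37° C. Chemiluminescence read after 1 h detection. EC50 (agonist) or IC50 (antagonist) from 4-parameter logistic fit; activity as percentage of All maximal effect.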

hAT1R [1] = target: T2, hAT1R (Homo sapiens, UniProt P30556); test: BRET β-arrestin2 biosensor assay, higher receptor expression (hAT1R 5 ng/well), HEK293 cells; conditions: for EC50: High AT1R Expression
T2 sequence (P30556 1-359): T1 sequence (P30556 1-359)

hAT1R [2] = target: T2, hAT1R; test: BRET Gq biosensor assay, agonist response, HEK293 cells; conditions: section of the 42nd table directly before the BRET P63 section
In short: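 HEK293 cells co-transfected with signal-peptide-optimized hAT1R plus Gαq-Rluc, Gβ1 and GFP-Gγ1, assayed 48 h later in Tyrode's buffer pH 7.4. Coelenterazine (2 μM final) added, then compound; BRET2 (515/410 nm) read after 5 min at room temperature. EC50 by 4-parameter fit, normalized to unstimulated (0%) and maximal AngII (100%).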

[3] = DiscoveRx β-arrestin2 recruitment
[4] = DiscoveRx β-arrestin2 recruitment, maximal response

| SMILES | EC50 (AGTR1; [3]) [nM] | DiscoveRx β-arrestin2 Ymax (%) (AGTR1; [4]) | BRET β-Arrestin2 High AT1R Expression Ymax (%) (hAT1R [1]) | EC50 (hAT1R [1]) [nM] | EC50 (hAT1R [2]) [nM] | DiscoveRx β-arrestin2 Ymax (%) (AGTR1; [3]) | EC50 (AGTR1) [nM] |
| --- | --- | --- | --- | --- | --- | --- | --- |
| CCCCc1nc(Cl)c(C(=O)O)n1Cc1ccc(-c2cc(N3CC(C)(C)c4ccccc43)ccc2-c2noc(=O)[nH]2)cc1 [Example 405, 2-butyl-4-chloro-1-((5′-(3,3-dimethylindolin-1-yl)-2′-(5-oxo-4,5-dihydro-1,2,4-oxadiazol-3-yl)-[1,1′-biphenyl]-4-yl)methyl)-1H-imidazole-5-carboxylic acid] | 57.5 | 32.8 | 95.8 | 42 | 492 |  |  |
| CCCCc1nc(Cl)c(C(=O)O)n1Cc1ccc(-c2cc(-c3ccc(C(=O)N(C)C)cc3)ccc2-c2noc(=O)[nH]2)cc1 [Example 409] | 59.3 | 50.6 | 88.7 | 73.2 | 136 |  |  |
| CCCCc1ncc(-c2nnc(C)o2)n1Cc1ccc(-c2cc(-c3ccccc3)ccc2-c2nn[nH]n2)cc1 [Example 413, 2-(1-((6′-(2H-tetrazol-5-yl)-[1,1′:3′,1″-terphenyl]-4-yl)methyl)-2-butyl-1H-imidazol-5-yl)-5-methyl-1,3,4-oxadiazole] | 21.8 | 16.3 | 47.5 | 55.6 | 351 |  |  |
| CCCCc1ncc(C(=O)NCCO)n1Cc1ccc(-c2cc(-c3ccccc3)ccc2C(=O)O)cc1 [Example 414] | 166 | 21.5 | 36.4 | 505 | 460 |  |  |
| CCCCc1ncc(C(=O)O)n1Cc1ccc(-c2cc(-c3ccccc3)ccc2C(=O)O)cc1 [Example 415] | 111 | 29.3 | 26.8 | 206 | 487 |  |  |
| CCCCc1nc(Cl)c(C(=O)O)n1Cc1ccc(-c2cc(N3CCCC(F)(F)C3)ccc2-c2nn[nH]n2)cc1 [Example 416, 2-butyl-4-chloro-1-((5′-(3,3-difluoropiperidin-1-yl)-2′-(2H-tetrazol-5-yl)-[1,1′-biphenyl]-4-yl)methyl)-1H-imidazole-5-carboxylic acid] | 18 | 29.5 | 69.0 | 115 | > 100000 |  |  |
| CCCCc1nc(Cl)c(C(=O)O)n1Cc1ccc(-c2cc(-c3cccc(C(F)F)n3)ccc2-c2nn[nH]n2)cc1 [Example 423, 2-butyl-4-chloro-1-((5′-(6-(difluoromethyl)pyridin-2-yl)-2′-(2H-tetrazol-5-yl)-[1,1′-biphenyl]-4-yl)methyl)-1H-imidazole-5-carboxylic acid] | 22.9 | 22.8 | 73.3 | 26 | 25.4 |  |  |
| CCCCC(=O)N(Cc1ccc(-c2cc(-c3ccccc3)ccc2-c2nn[nH]n2)nc1)[C@H](C(=O)O)C(C)C [Example 430] | 33.2 |  | 78.9 | 70.4 | 275 | 55.2 |  |
| CCCCC(=O)N(Cc1ccc(-c2cc(-c3ccccc3)ccc2-c2nn[nH]n2)cn1)[C@H](C(=O)O)C(C)C [Example 431] | 194 |  | 92.7 | 1590 | 910 | 26.0 |  |
| CCCC(=O)N(Cc1ccc(-c2cc(-c3ccccc3)ccc2-c2nn[nH]n2)nc1)[C@H](C(=O)O)C(C)C [Example 432] | 40.1 |  | 88.4 | 163 | 286 | 42.9 |  |
| CC(C)CCC(=O)N(Cc1ccc(-c2cc(-c3ccccc3)ccc2-c2nn[nH]n2)nc1)[C@H](C(=O)O)C(C)C [Example 433] | 59.1 |  | 92.4 | 115 | 581 | 49.6 |  |
| CCCCC(=O)N(Cc1ccc(-c2cc(-c3ccccc3)ccc2-c2noc(=O)[nH]2)nc1)[C@H](C(=O)O)C(C)C [Example 434, (S)-3-Methyl-2-(N-((6-(4-(5-oxo-4,5-dihydro-1,2,4-oxadiazol-3-yl)-[1,1′-biphenyl]-3-yl)pyridin-3-yl)methyl)pentanamido)butanoic acid 2,2,2-trifluoroacetate] | 72 |  | 96.6 | 316 | 1280 | 40.9 |  |
| CCCCC(=O)N(Cc1ccc(-c2cc(Oc3ccccc3)ccc2-c2nn[nH]n2)cc1)[C@H](C(=O)O)C(C)C [Example 435, (S)-3-Methyl-2-(N-((5′-phenoxy-2′-(2H-tetrazol-5-yl)-[1,1′-biphenyl]-4-yl)methyl)pentanamido)butanoic acid] | 1410 |  | 12.3 | 305 | > 100000 | 19.1 |  |
| CCCCC(=O)N(Cc1ccc(-c2cc(Oc3cccnc3)ccc2-c2nn[nH]n2)cc1)[C@H](C(=O)O)C(C)C [Example 436] | 993 |  | 58.0 | 13600 | > 100000 | 31.2 |  |
| CCCCC(=O)N(Cc1ccc(-c2cc(Oc3cccc(OC(F)(F)F)c3)ccc2-c2nn[nH]n2)cc1)[C@H](C(=O)O)C(C)C [Example 437] | 3920 |  | 16.4 | 168 | > 100000 | 26.4 |  |
| CCCCC(=O)N(Cc1ccc(-c2cc(-c3cc(F)cc(F)c3)ccc2-c2nn[nH]n2)cc1)[C@H](C(=O)O)C(C)C [Example 438, (S)-2-(N-((3″,5″-Difluoro-6′-(2H-tetrazol-5-yl)-[1,1′:3′,1″-terphenyl]-4-yl)methyl)pentanamido)-3-methylbutanoic acid] | 20.4 |  | 74.6 | 34.8 | 718 | 41.7 |  |
| CCCCC(=O)N(Cc1ccc(-c2cc(-c3cccnc3OC)ccc2-c2nn[nH]n2)cc1)[C@H](C(=O)O)C(C)C [Example 439] | 108 |  | 35.8 | 117 | 386 | 26.4 |  |
| CCCCC(=O)N(Cc1ccc(-c2cc(-c3ccc(NC(C)=O)cc3)ccc2-c2nn[nH]n2)cc1)[C@H](C(=O)O)C(C)C [Example 440] | 241 |  | 50.1 | 28300 | 582 | 13.6 |  |
| CCCCC(=O)N(Cc1ccc(-c2cc(-c3ccc4ncccc4c3)ccc2-c2nn[nH]n2)cc1)[C@H](C(=O)O)C(C)C [Example 441] | 101 |  | 64.3 | 57 | > 100000 | 39.3 |  |
| CCCCC(=O)N(Cc1ccc(-c2cc(-c3cnn(C)c3)ccc2-c2nn[nH]n2)cc1)[C@H](C(=O)O)C(C)C [Example 442] | 105 |  | 17.2 | 303 | > 100000 | 10.9 |  |
| CCCCC(=O)N(Cc1ccc(-c2cc(N3CC(C)(C)c4ccccc43)ccc2-c2nn[nH]n2)cc1)[C@H](C(=O)O)C(C)C [Example 450] | 479 |  | 77.6 | 308 | 5260 | 23.1 | > 100000 |
| CCCCC1=NC2(CCCC2)C(=O)N1Cc1ccc(-c2cc(-c3ccccc3)ccc2-c2nn[nH]n2)nc1 [Example 451, 3-((6-(4-(1H-Tetrazol-5-yl)-[1,1′-biphenyl]-3-yl)pyridin-3-yl)methyl)-2-butyl-1,3-diazaspiro[4.4]non-1-en-4-one] | 23.3 |  | 44.8 | 13700 | 4110 | 11.4 |  |
| CCCCC1=NC2(CCCC2)C(=O)N1Cc1ccc(-c2cc(-c3ccccc3)ccc2-c2nn[nH]n2)cn1 [Example 452, 3-((5-(4-(2H-Tetrazol-5-yl)-[1,1′-biphenyl]-3-yl)pyridin-2-yl)methyl)-2-butyl-1,3-diazaspiro[4.4]non-1-en-4-one] | 8.1 |  | 84.6 | 33.8 | 44.8 | 36.1 |  |
| CCCCC1=NC2(CCCC2)C(=O)N1Cc1ccc(-c2cc(-c3ccccc3)ccc2-c2noc(=O)[nH]2)cn1 [Example 453, 3-(3-(6-((2-Butyl-4-oxo-1,3-diazaspiro[4.4]non-1-en-3-yl)methyl)pyridin-3-yl)-[1,1′-biphenyl]-4-yl)-1,2,4-oxadiazol-5(4H)-one] | 31.4 |  | 95.9 | 13 | 24 | 59.5 |  |

From patent US12037324B2, “Biarylmethyl heterocycles” (Université de Montréal, priority 2016, dated 2024)
